SMILES strings stand for the structures.

The test system of assay [1] is AsPC-1 cells. Nature of the assay: Cell Proliferation Assay, AsPC-1 (CellTiter-Glo 2.0 viability). The settings on record: AsPC-1 pancreatic cancer (KRAS G12D mutation). The class given is cell-based. How it is done: (§1) Test Example 3: Cell Proliferation Assay
(§2) Cell viability testing of test compounds in AsPC-1 pancreatic cancer (KRAS G12D mutation) or SW480 colon cancer (KRAS G12V mutation) cells for 72 hours
(§3) The reference compound Staurosporine was purchased from Sigma-Aldrich (Saint Louis, MI), and CellTiter-Glo® 2.0 Luminescent cell viability assay reagent (cat #G9243) was purchased from Promega (Madison, WI). AsPC-1 and SW480 cell lines were purchased from American Type Culture Collection (Manassas, VA). AsPC-1 cells were cultured with RPMI-1640 (ATCC, cat #30-2001) and SW480 cells were cultured with DMEM (ATCC cat #30-2002).
(§4) A medium supplemented with 10% FBS (Sigma-Aldrich, cat #F2442) and 100 µg/mL of penicillin-streptomycin (Sigma-Aldrich, cat #P4333) was used. Cells were cultured at 37 °C in a humidified atmosphere of 5% CO2 and 95% air.
(§5) • 1. The test compound and reference compound, Staurosporine were dissolved in DMSO solution to prepare 20 mM (test compound) and 10 mM (control compound, Staurosporine) in the Source Plate and diluted with DMSO to 3-fold and 10 doses. • 2. From the Source Plate, 10 volumes of 125 nL test compound or 25 nL reference compound were dispensed into wells of a 384-well culture plate (VWR, cat #82050-076) using Echo 655. • 3. 25 μL of culture medium including 2000 AsPC-1 or SW480 cells was dispensed into each 384-well cell culture plate. • 4. Cells were cultured with the compound for 72 hours at 37 °C and 5% CO2 conditions. • 5. 25 μL of CellTiter-Glo 2.0 reagent was added to each well of the plate. • 6. The contents were mixed for 2 minutes on an orbital shaker, and the luminescence signal was stabilized at room temperature for 15 minutes. • 7. Luminescence signals were measured with an Envision 2104 Multilabel Reader (PerkinElmer, Santa Clara, CA), and the number of surviving cells was determined through quantification of ATP present in each culture. • 8. IC50 values were calculated based on the Sigmoidal dose-response equation in the GraphPad Prism 4 program.
On the technique in general: Cellular ATP, detected with luciferase, serves as a proxy for viable cell number.

The test system of assay [2] is SW480 cells. Nature of the assay: Cell Proliferation Assay, SW480 (CellTiter-Glo 2.0 viability). The class given is cell-based. Particulars: Homo sapiens; SW480 colon cancer (KRAS G12V mutation); 72 hours. The method, then:
as §1, §2, §3, §4, §5

The IC50 is the point on the concentration scale where inhibition reaches its midpoint. High values mean weaker potency in that assay, low ones greater potency in that assay. On to `C#Cc1c(F)ccc2cc(O)cc(-c3nc4c5c(nc(OC[C@@]67CCCN6C[C@H](F)C7)nc5c3F)N([C@H](C)c3cccnc3N)CCO4)c12` [Example 13a, 4-(10-((R)-1-(2-aminopyridin-3-yl)ethyl)-4-fluoro-2-(((2R,7aS)-2-fluorotetrahydro-1H-pyrrolizin-7a(5H)-yl)methoxy)-9,10-dihydro-8H-7-oxa-1,3,6,10-tetraazacyclohepta[de]naphthalen-5-yl)-5-ethynyl-6-fluoronaphthalen-2-ol], for which the half-maximal inhibitory concentration (IC50) is less than 1000 nM in assay [1] (Homo sapiens, ASPC1, 72 h) and less than 1000 nM in assay [2].

With `C#Cc1c(F)ccc2cc(O)cc(-c3nc4c5c(nc(OC[C@@]67CCCN6C[C@H](F)C7)nc5c3F)N([C@H](C)c3cccnc3N)C[C@H](C)O4)c12` [Example 6a, 4-((S)-10-((R)-1-(2-aminopyridin-3-yl)ethyl)-4-fluoro-2-(((2R,7aS)-2-fluorotetrahydro-1H-pyrrolizin-7a(5H)-yl)methoxy)-8-methyl-9,10-dihydro-8H-7-oxa-1,3,6,10-tetraazacyclohepta[de]naphthalen-5-yl)-5-ethynyl-6-fluoronaphthalen-2-ol], the IC50 in assay [1] (Homo sapiens, ASPC1, 72 h) lay in the range of 1000 to 10000 nM; in assay [2], 1000 to 10000 nM.

On to `C#Cc1c(F)ccc2cc(O)cc(-c3nc4c5c(nc(OCC6C[C@@H](F)CN6C)nc5c3F)N(C(C)c3cccnc3N)CCO4)c12` (stereo partly drawn) [Example 18, 4-(10-(1-(2-aminopyridin-3-yl)ethyl)-4-fluoro-2-(((4R)-4-fluoro-1-methylpyrrolidin-2-yl)methoxy)-9,10-dihydro-8H-7-oxa-1,3,6,10-tetraazacyclohepta[de]naphthalen-5-yl)-5-ethynyl-6-fluoronaphthalen-2-ol], for which the IC50 in assay [1] (Homo sapiens, ASPC1, 72 h) was 1000 to 10000 nM; in assay [2] it was less than 1000 nM.

In the case of `C#Cc1c(F)ccc2cc(O)cc(-c3nc4c5c(nc(OCC6(CN7CCOCC7)CC6)nc5c3F)N(C(C)c3cccnc3N)CCO4)c12` (stereo not shown) [Example 12, 4-(10-(1-(2-aminopyridin-3-yl)ethyl)-4-fluoro-2-((1-(morpholinomethyl)cyclopropyl)methoxy)-9,10-dihydro-8H-7-oxa-1,3,6,10-tetraazacyclohepta[de]naphthalen-5-yl)-5-ethynyl-6-fluoronaphthalen-2-ol], the IC50 was 1000 to 10000 nM in assay [1] (Homo sapiens, ASPC1, 72 h) and less than 1000 nM in assay [2].

For the compound `CCc1c(F)ccc2cc(O)cc(-c3nc4c5c(nc(OCC6(C#N)CCOCC6)nc5c3F)N(C(C)c3cccnc3N)CCO4)c12` (stereo not shown) [Example 24, 4-(((10-(1-(2-aminopyridin-3-yl)ethyl)-5-(8-ethyl-7-fluoro-3-hydroxynaphthalen-1-yl)-4-fluoro-9,10-dihydro-8H-7-oxa-1,3,6,10-tetraazacyclohepta[de]naphthalen-2-yl)oxy)methyl)tetrahydro-2H-pyran-4-carbonitrile], the 50% inhibitory concentration (IC50) in assay [1] (Homo sapiens, ASPC1, 72 h) is greater than 10000 nM; in assay [2], 1000 to 10000 nM.

Turning to `CC(c1cccnc1N)N1CCOc2c(Cl)c(-c3ccc(F)c4sc(N)c(C#N)c34)c(F)c3nc(OC[C@@]45CCCN4C[C@H](F)C5)nc1c23` (stereo partly drawn) [Example 29a, (4R)-2-amino-4-(4-(1-(2-aminopyridin-3-yl)ethyl)-8-chloro-10-fluoro-2-(((2R,7aS)-2-fluorotetrahydro-1H-pyrrolizin-7a(5H)-yl)methoxy)-5,6-dihydro-4H-[1,4]oxazepino[5,6,7-de]quinazolin-9-yl)-7-fluorobenzo[b]thiophene-3-carbonitrile], the IC50 is less than 1000 nM in assay [1] (Homo sapiens, ASPC1, 72 h) and less than 1000 nM in assay [2].

In assay [2], `C#Cc1c(F)ccc2cc(O)cc(-c3nc4c5c(nc(OC[C@@]67CCCN6C[C@H](F)C7)nc5c3F)N(C(C)c3ccccc3N)CCO4)c12` (stereo partly drawn) [Example 20, 4-(10-(1-(2-aminophenyl)ethyl)-4-fluoro-2-(((2R,7aS)-2-fluorotetrahydro-1H-pyrrolizin-7a(5H)-yl)methoxy)-9,10-dihydro-8H-7-oxa-1,3,6,10-tetraazacyclohepta[de]naphthalen-5-yl)-5-ethynyl-6-fluoronaphthalen-2-ol] came in with a half-inhibitory concentration (IC50) of less than 1000 nM.

In the case of `CCc1c(F)ccc2cc(O)cc(-c3nc4c5c(nc(OC[C@@]67CCCN6C[C@H](F)C7)nc5c3F)N([C@H](C)c3cccnc3N)CCO4)c12` [Example 14a, 4-(10-((R)-1-(2-aminopyridin-3-yl)ethyl)-4-fluoro-2-(((2R,7aS)-2-fluorotetrahydro-1H-pyrrolizin-7a(5H)-yl)methoxy)-9,10-dihydro-8H-7-oxa-1,3,6,10-tetraazacyclohepta[de]naphthalen-5-yl)-5-ethyl-6-fluoronaphthalen-2-ol], the concentration for half-maximal inhibition (IC50) is less than 1000 nM in assay [1] (Homo sapiens, ASPC1, 72 h) and less than 1000 nM in assay [2].

As to `CCc1c(F)ccc2cc(O)cc(-c3nc4c5c(nc(OC[C@@H]6CC[C@H]7COCCN76)nc5c3F)N(C(C)c3cccnc3N)CCO4)c12` (stereo partly drawn) [Example 25, 4-(10-(1-(2-aminopyridin-3-yl)ethyl)-4-fluoro-2-(((6S,8aS)-hexahydro-1H-pyrrolo[2,1-c][1,4]oxazin-6-yl)methoxy)-9,10-dihydro-8H-7-oxa-1,3,6,10-tetraazacyclohepta[de]naphthalen-5-yl)-5-ethyl-6-fluoronaphthalen-2-ol], the IC50 was 1000 to 10000 nM in assay [1] (Homo sapiens, ASPC1, 72 h) and less than 1000 nM in assay [2].

Turning to `CCc1c(F)ccc2cc(O)cc(-c3nc4c5c(nc(OC[C@@]67CCCN6C[C@H](OC)C7)nc5c3F)N(C(C)c3cccnc3N)CCO4)c12` (stereo partly drawn) [Example 17, 4-(10-(1-(2-aminopyridin-3-yl)ethyl)-4-fluoro-2-(((2R,7aS)-2-methoxytetrahydro-1H-pyrrolizin-7a(5H)-yl)methoxy)-9,10-dihydro-8H-7-oxa-1,3,6,10-tetraazacyclohepta[de]naphthalen-5-yl)-5-ethyl-6-fluoronaphthalen-2-ol], the half-inhibitory concentration (IC50) is less than 1000 nM in assay [1] (Homo sapiens, ASPC1, 72 h) and less than 1000 nM in assay [2].

On to `CCc1c(F)ccc2cc(O)cc(-c3nc4c5c(nc(OCC6C[C@@H](F)CN6C)nc5c3F)N(C(C)c3cccnc3N)CCO4)c12` (stereo partly drawn) [Example 22, 4-(10-(1-(2-aminopyridin-3-yl)ethyl)-4-fluoro-2-(((4R)-4-fluoro-1-methylpyrrolidin-2-yl)methoxy)-9,10-dihydro-8H-7-oxa-1,3,6,10-tetraazacyclohepta[de]naphthalen-5-yl)-5-ethyl-6-fluoronaphthalen-2-ol], for which the IC50 is 1000 to 10000 nM in assay [1] (Homo sapiens, ASPC1, 72 h) and less than 1000 nM in assay [2].

`CCc1c(F)ccc2cc(O)cc(-c3nc4c5c(nc(OC[C@@]67CCCN6C[C@H](F)C7)nc5c3F)N(C(C)c3cc(C)cnc3N)CCO4)c12` (stereo partly drawn) [Example 23, 4-(10-(1-(2-amino-5-methylpyridin-3-yl)ethyl)-4-fluoro-2-(((2R,7aS)-2-fluorotetrahydro-1H-pyrrolizin-7a(5H)-yl)methoxy)-9,10-dihydro-8H-7-oxa-1,3,6,10-tetraazacyclohepta[de]naphthalen-5-yl)-5-ethyl-6-fluoronaphthalen-2-ol]: the IC50 in assay [1] (Homo sapiens, ASPC1, 72 h) was 1000 to 10000 nM; in assay [2], less than 1000 nM.

On to `C#Cc1c(F)ccc2cc(O)cc(-c3nc4c5c(nc(OC[C@@]67CCCN6C[C@H](F)C7)nc5c3F)N([C@@H](C)c3cccnc3N)CCO4)c12` [Example 13b, 4-(10-((S)-1-(2-aminopyridin-3-yl)ethyl)-4-fluoro-2-(((2R,7aS)-2-fluorotetrahydro-1H-pyrrolizin-7a(5H)-yl)methoxy)-9,10-dihydro-8H-7-oxa-1,3,6,10-tetraazacyclohepta[de]naphthalen-5-yl)-5-ethynyl-6-fluoronaphthalen-2-ol], for which, in assay [1] (72 hours), the half-maximal inhibitory concentration (IC50) is greater than 10000 nM.

`CC(c1cccnc1N)N1CCOc2c(Cl)c(-c3ccc(F)c4sc(N)c(C#N)c34)c(F)c3nc(OC[C@@]45CCCN4C[C@H](F)C5)nc1c23` (stereo partly drawn) [Example 29b, (4S)-2-amino-4-(4-(1-(2-aminopyridin-3-yl)ethyl)-8-chloro-10-fluoro-2-(((2R,7aS)-2-fluorotetrahydro-1H-pyrrolizin-7a(5H)-yl)methoxy)-5,6-dihydro-4H-[1,4]oxazepino[5,6,7-de]quinazolin-9-yl)-7-fluorobenzo[b]thiophene-3-carbonitrile] registered a half-inhibitory concentration (IC50) in assay [1] (72 hours) of 1000 to 10000 nM.

The values are drawn from patent US20260374781A1, “NOVEL TRIHETEROCYCLIC COMPOUNDS” (IDENCE CO., LTD., priority 2022, published 2026).
